Measured values as given in paper PMC9499324, “Glycyrrhizic Acid Derivatives Bearing Amino Acid Residues in the Carbohydrate Part as Dengue Virus E Protein Inhibitors: Synthesis and Antiviral Activity” (International Journal of Molecular Sciences, 2022).

Assays:
wild-type JEV SRIPs = assay: Attachment assay with wild-type JEV SRIPs on Vero E6 cells; assay type: cell-based, Japanese encephalitis virus; details: 4 °C for 1 h
Protocol: (§1) Figure 6 Attachment inhibition of chimeric DENV2 CprM-E/JEV and wild-type JEV SRIPs by active GL conjugates. Vero E6 cells were pre-cooled and incubated with freshly prepared mixtures of DENV2 CprM-E/JEV or wild-type JEV SRIPs, with active GL derivatives 3 (A), 6 (B), 11 (C), and 21 (D) at 4 °C for 1 h, respectively. After the removal of the mixtures, the cells were kept at 37 °C for 18 h and then an immunofluorescent assay with anti-JEV NS5 antibodies plus DAPI staining was performed. Finally, the inhibition percentage of SRIP attachment infectivity was measured as follows: 1-(percentage of JEV NS5 positivity in treated cells/percentage of JEV NS5 positivity in mock-treated cells). * p < 0.05; *** p < 0.001 compared with untreated, infected cells.
(§2) DNA-launched cytomegaloviruses (CMV) promoter-driven JEV and ZIKV replicons had been constructed, as described in our prior reports. […] After the removal of the mixture (the compound and SRIP), the cells were incubated at 37 °C for 18 h, and then were analyzed by immunofluorescent assay with anti-JEV NS3 and anti-ZIKV NS5 antibodies, respectively, plus DAPI staining for determining the residual infectivity of wild-type and chimeric SRIPs, as described above.

[1] = MTT cytotoxicity assay in A549 cells; assay type: cell-based; details: human
Protocol: Vero E6 cells and A549 cells (5 × 10^3 cells/well) were treated with the serial dilution of GL conjugates at 0, 0.1, 10, 20, and 50 μM for examining the in vitro cytotoxicity of tested compounds. After 96-h incubation at 37 °C, the cells were incubated with MTT (3-(4,5-Dimethylthiazol-2-yl)-2,5-Diphenyltetrazolium Bromide) solution for another 4 h incubation, mixed with DMSO for 15 min after the removal of media, and then measured the absorbance at 570 nm. The viability (%) of treated cells was quantified according to the reduced ability of MTT. Finally, the concentration for reducing 50% cell viability (the 50% cytotoxic concentration, CC50) was determined by regression analysis of the concentration–response survival curve.

wild-type ZIKV SRIPs = assay: Attachment assay with wild-type ZIKV SRIPs on Vero E6 cells; assay type: cell-based, Zika virus; details: 4 °C for 1 h
Protocol: Figure 7 Attachment inhibition of chimeric DENV2 prM-E/ZIKV and wild-type ZIKV SRIPs by active GL derivatives 3 and 11. Vero E6 cells were pre-cooled and incubated with fresh-prepared mixtures of DENV2 prM-E/ZIKV or wild-type ZIKV SRIPs, with active GL derivatives 3 (A), and 11 (B) at 4 °C for 1 h, respectively. After the removal of the mixtures, the cells were kept at 37 °C for 18 h and then an immunofluorescent assay with anti-ZIKV NS1 antibodies plus DAPI staining was performed. Finally, the inhibition percentage of SRIP attachment infectivity was measured as follows: 1-(percentage of ZIKV NS1 positivity in treated cells/ percentage of ZIKV NS1 positivity in mock-treated cells). * p < 0.05; *** p < 0.001 compared with untreated, infected cells.
as §2

DENV1 = DENV1 infectivity inhibition assay in Vero E6 cells; assay type: cell-based; details: Dengue virus, DENV1, Vero C1008, read-out: IC50 in the DENV1 infectivity inhibition assay
Protocol: In the antiviral screening assay, each tested GL conjugate at 10 μM was used to survey the anti-DENV activity in Vero E6 cells using cytopathic effect (CPE) and infectivity reduction assays as described in our prior report. In CPE and infectivity reduction assays, Vero E6 cells were infected by DENV2 at an MOI of 0.005 and simultaneously treated 10 μM of indicated GL conjugate for 96 h, and then photographed by microscope for examining the levels of DENV2-induced CPE in infected cells treated with or without GL conjugate. Meanwhile, the cells were further performed using immunofluorescence assay (IFA) with anti-DENV NS4B antibodies (GeneTex, Inc., Hsinchu, Taiwan) and anti-rabbit IgG antibodies conjugated with AF555 (ThermoFisher, Waltham, MA, USA) plus DAPI (4′,6-diamidino-2-phenylindole) nuclear staining. Finally, the DENV-2 infectivity was measured according to the ratio of DENV NS4B-positive cells to DAPI-stained cells in the well of mock-treated or treated cells, as described in [45, 59, 60].
Supplemental Figure S25. Infectivity inhbition of DENV1 in Vero E6 cells by active GL conjugates. Cells were infected with DENV1 in the presence and absence of Compounds 3, 6, 11, and 21 at the concentrations of 0.1, 1, and 10 μM, respectively. Treated/infected Vero E6 cells were also analyzed using immunofluorescence staining with anti-DENV2 NS4B antibodies.
Residual infectivity was discovered by the ratio of DENV2 NS4B positive cells to total cells stained with DAPI, and relative inhibition activity was determined based on full infectivity with the subtraction of its residual infectivity.
(1 picture or pasted object on this page, not shown here)

DENV2 CprME/JEV SRIPs = assay: E protein-mediated attachment assay with chimeric DENV2 CprME/JEV SRIPs on Vero E6 cells; assay type: cell-based, Dengue virus type 2; details: Dengue virus, DENV2, Vero C1008, 1 h, read-out: IC50 of E-mediated attachment against DENV2 CprME/JEV SRIPs
Protocol: as §1, §2

Compound | Attachment of wild-type JEV SRIPs onto Vero E6 cells (wild-type JEV SRIPs) | CC50 at 96 h [1] [µM] | Attachment of wild-type ZIKV SRIPs onto Vero E6 cells (wild-type ZIKV SRIPs) | IC50 (DENV1) [µM] | IC50 (DENV2 CprME/JEV SRIPs) [µM]
CCOC(=O)[C@H](Cc1ccccc1)NC(=O)[C@H]1O[C@@H](O[C@H]2[C@H](OC3CC[C@@]4(C)C(CC[C@]5(C)C4C(=O)C=C4C6C[C@@](C)(C(=O)O)CC[C@]6(C)CC[C@]45C)C3(C)C)O[C@H](C(=O)N[C@@H](Cc3ccccc3)C(=O)OCC)[C@@H](O)[C@@H]2O)[C@H](O)[C@@H](O)[C@@H]1O (stereo partly drawn) [Compound 11, 3-O-{2-O-[N-(β-D-Glucopyranosyluronoyl)-L-phenylalanineethyl ester]-N-(β-D-Glucopyranosyluronoyl)-L-phenylalanineethyl ester}-(3β, 20β)-11-oxo-30-noroleane-12-ene-30-oic Acid] | did not impede | > 100 | did not impede | 1.25 ± 0.167 | 2.82
COC(=O)[C@H](NC(=O)[C@H]1O[C@@H](O[C@H]2[C@H](OC3CC[C@@]4(C)C(CC[C@]5(C)C4C(=O)C=C4C6C[C@@](C)(C(=O)O)CC[C@]6(C)CC[C@]45C)C3(C)C)O[C@H](C(=O)N[C@@H](C(=O)OC)C(C)C)[C@@H](O)[C@@H]2O)[C@H](O)[C@@H](O)[C@@H]1O)C(C)C (stereo partly drawn) [Compound 3, 3-O-{2-O-[N-(β-D-Glucopyranosyluronoyl)-D-valinemethyl ester]-N-(β-D-glucopyranosyluronoyl)-D-valinemethyl ester}-(3β, 20β)-11-oxo-30-noroleane-12-ene-30-oic Acid] | did not impede | > 100 | did not impede | 2.81 ± 0.54 | 6.69
